Test results as given in BindingDB's records for doi:10.1111/j.1747-0285.2008.00745.x (University of Connecticut, 2009).

Molecular target: T1, Dihydrofolate reductase (Candida glabrata (strain ATCC 2001 / BCRC 20586 / JCM 3761 / NBRC 0622 / NRRL Y-65 / CBS 138), UniProt Q6FPH0)
T1 sequence (Q6FPH0 whole entry): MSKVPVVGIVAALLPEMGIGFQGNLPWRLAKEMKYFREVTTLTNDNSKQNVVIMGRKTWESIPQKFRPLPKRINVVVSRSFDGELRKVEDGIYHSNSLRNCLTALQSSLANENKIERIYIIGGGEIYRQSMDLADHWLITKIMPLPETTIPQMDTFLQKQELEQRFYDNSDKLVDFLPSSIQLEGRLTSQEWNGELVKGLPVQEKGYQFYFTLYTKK
Assay: Enzyme Inhibition Assay
Method: Enzyme activity assay were performed by monitoring the rate of enzyme-dependent NADPH consumption at an absorbance of 340 nm over 5 min.

Row | IC50 | SMILES
1 | 6.4 nM | COc1ccc(-c2cc(OC)cc(C(C)C#Cc3c(C)nc(N)nc3N)c2)cc1 (racemic)
2 | 0.61 nM | COc1cc(-c2ccc(C)cc2)cc([C@@H](C)C#Cc2c(C)nc(N)nc2N)c1 (racemic)
3 | 0.55 nM | COc1cc(-c2cc(C)cc(C)c2)cc([C@@H](C)C#Cc2c(C)nc(N)nc2N)c1 (racemic) [Biphenyl antifolate, 2]
4 | 5.5 nM | COc1cc(-c2c(C)cccc2C)cc(C(C)C#Cc2c(C)nc(N)nc2N)c1 (racemic) [Biphenyl antifolate, 6]
5 | 7.3 nM | COc1cc(-c2ccccc2C)cc(C(C)C#Cc2c(C)nc(N)nc2N)c1 (stereo unspecified) [5-{3-[3-methoxy-5-(2-methylphenyl)phenyl]but-1-yn-1-yl}-6-methylpyrimidine-2,4-diamine]
6 | 10 nM | COc1cc(-c2ccc(C(C)(C)C)cc2)cc(C(C)C#Cc2c(C)nc(N)nc2N)c1 (racemic) [Biphenyl antifolate, 24]
